The numbers were not newly measured in patent US12029822B2, “Drug delivery systems containing oxidized cholesterols” (Georgia Tech Research Corporation, priority 2019, dated 2024), which cites them from elsewhere.

In the data set the test system is AB1-HA tumor. The note with it: CTX treatment at Day 9.

As to `O=P1(N(CCCl)CCCl)NCCCO1` (stereo not shown) [CTX, Cyclophosphamide], the cure rate is given as 75%.
